According to ChEMBL document CHEMBL5500377, “Design, synthesis and molecular modeling of novel D-ring substituted steroidal 4,5-dihydropyrazole thiazolinone derivatives as anti-inflammatory agents by inhibition of COX-2/iNOS production and down-regulation of NF-κB/MAPKs in LPS-induced RAW264.7 macrophage cells” (Eur J Med Chem, 2024):
pIC50: −log10 of the molar value.

Experiments:
RAW264.7 [1] = assay: Anti-inflammatory activity against mouse RAW264.7 cells assessed as inhibition of LPS-induced NO production at 5 uM measured after 24 hrs incubation by Griess assay relative to control; assay type: functional
[2] = Cytotoxicity against mouse RAW264.7 cells assessed as cell viability at 5 uM measured after 24 hrs incubation by MTT assay relative to control; assay type: toxicity, cell-based; settings: read-out: Activity
RAW264.7 [3] = assay: Anti-inflammatory activity against mouse RAW264.7 cells assessed as inhibition of LPS-induced NO production measured after 24 hrs incubation by Griess assay; assay type: functional, cell-based; settings: RAW264.7, 24 h

SMILES | inhibition at 5 µM (RAW264.7 [1]) [%] | viability at 24 h, 5 µM [2] [%] | pIC50 (RAW264.7 [3])
C[C@]12CC[C@H]3[C@@H](CC=C4C[C@@H](O)CC[C@@]43C)[C@@H]1CC[C@@H]2C1=NN(C2=NC(=O)CS2)C(c2ccc(S(C)(=O)=O)cc2)C1 (some centres not stated) | 47.3 | 74.5 | –
COc1ccc(C2CC([C@H]3CC[C@H]4[C@@H]5CC=C6C[C@@H](O)CC[C@]6(C)[C@H]5CC[C@]34C)=NN2C2=NC(=O)CS2)cc1 (some centres not stated) | 30.7 | 95.9 | –
Cc1ccc(C2CC([C@H]3CC[C@H]4[C@@H]5CC=C6C[C@@H](O)CC[C@]6(C)[C@H]5CC[C@]34C)=NN2C2=NC(=O)CS2)cc1 (some centres not stated) | 35.4 | 88.5 | –
CSc1ccc(C2CC([C@H]3CC[C@H]4[C@@H]5CC=C6C[C@@H](O)CC[C@]6(C)[C@H]5CC[C@]34C)=NN2C2=NC(=O)CS2)cc1 (some centres not stated) | 45.2 | 82.2 | –
COc1ccccc1C1CC([C@H]2CC[C@H]3[C@@H]4CC=C5C[C@@H](O)CC[C@]5(C)[C@H]4CC[C@]23C)=NN1C1=NC(=O)CS1 (some centres not stated) | 55.5 | 70 | –
C[C@]12CC[C@H]3[C@@H](CC=C4C[C@@H](O)CC[C@@]43C)[C@@H]1CC[C@@H]2C1=NN(C2=NC(=O)CS2)C(c2ccccc2Cl)C1 (some centres not stated) | 52.6 | 81.1 | 4.91
C[C@]12CC[C@H]3[C@@H](CC=C4C[C@@H](O)CC[C@@]43C)[C@@H]1CC[C@@H]2C1=NN(C2=NC(=O)CS2)C(c2ccccc2F)C1 (some centres not stated) | 46.8 | 86.4 | 5.27
C[C@]12CC[C@H]3[C@@H](CC=C4C[C@@H](O)CC[C@@]43C)[C@@H]1CC[C@@H]2C1=NN(C2=NC(=O)CS2)C(c2ccc(F)cc2)C1 (some centres not stated) | 44.7 | 90.9 | 5.37
C[C@]12CC[C@H]3[C@@H](CC=C4C[C@@H](O)CC[C@@]43C)[C@@H]1CC[C@@H]2C1=NN(C2=NC(=O)CS2)C(c2cccc(Cl)c2)C1 (some centres not stated) | 50.7 | 73.3 | 5.29
